The assay has as its system Septoria tritici. Briefly: Speckled leaf blotch pathogen Septoria tritici in the microtiter test. The assay is classed as cell-based. The note with it: 125 ppm, microtiter plate, absorption at 405 nm on day 7 after inoculation. Here is the method: The stock solution is pipetted into a microtiter plate (MTP) and diluted to the stated active compound concentration using an aqueous, malt-based nutrient medium for fungi. An aqueous spore suspension of Septoria tritici was then added. The plates were placed in a water vapor-saturated chamber at temperatures of 18° C. Using an absorption photometer, the MTPs were measured at 405 nm on day 7 after the inoculation. The parameters measured were compared to the growth of the active compound-free control variant and the fungus- and active compound-free blank value to determine the relative growth in % of the pathogens in the individual active compounds. The relative growth at 125 ppm of compound 1 was 0%.

Structures are written as SMILES.

As for `Cc1nc2ncnn2c(N2CCC(C)CC2)c1-c1ncncc1Cl` [compound 1, 6-(5-chloropyrimidin-4-yl)-5-methyl-7-(4-methylpiperidin-1-yl)-[1,2,4]triazolo[1,5-a]pyrimidine], the relative growth turned out to be 0%.

Values taken from patent publication US20080132412A1, “7-Amino-6-Heteroaryl-1,2,4-Triazolo[1,5-A]Pyrimidines and Their Use for Controlling Harmful Fungi” (BASF Aktiengesellschaft, priority 2004, published 2008).
